US5824533A, “Orpinomyces xylanase proteins and coding sequences” (University of Georgia Research Foundation, Inc., priority 1995, dated 1998)
Several values for one entry are separate records, joined by “and”; a condition that tells them apart may be missing. Equal values may be shown once. Entries after “also recorded” stand apart in the source; their conditions may differ.

Test system: Orpinomyces sp. strain PC-2 endoxylanase XynA-1 (purified native enzyme, 29 kDa)
Experiment: Effect of reagents on purified endoxylanase activity (residual activity on oat spelt xylan)
Type: biochemical
Experimental: Enzyme assays: All enzyme assays were carried out in duplicate and in 50 mM piperazine/HCl buffer at pH 5.5 and 40° C. unless otherwise stated.
a. Xylanase activity was assayed by mixing a 0.2 ml aliquot of diluted enzyme with 0.4 ml buffer containing 1.0% (w/v) oat spelt xylan (Sigma Chemical Co., St. Louis, Mo.), preheated to 40° C. After 15 min at 40° C., the reaction was terminated by the addition of 1.2 ml of 3,5-dinitrosalicylic acid (DNS) (Miller, 1959), followed by 0.2 ml of 2.5N NaOH to dissolve the residual water-insoluble xylan. The reaction tube was then placed in boiling water for 5 min before determining the absorbance at 550 nm (A550 nm). Xylose was used as the standard.
The effects of various metal ions and reagents on xylanase activity were determined in 50 mM piperazine-HCl, pH 5.5. The enzyme and metal ions or reagents (1 and 3 mM) were preincubated at 22° C. for 10 min; residual activities were measured at 40° C.

[1] = reagent 1 mM, preincubated 22° C. 10 min, residual activity at 40° C., 50 mM piperazine-HCl pH 5.5, control without reagent = 100%
[2] = reagent 3 mM, preincubated 22° C. 10 min, residual activity at 40° C., 50 mM piperazine-HCl pH 5.5, control without reagent = 100%
[3] = reagent 1 and 3 mM, 50 mM piperazine-HCl pH 5.5

SMILES | Relative activity (%) [1] | Relative activity (%) [2] | Effect on xylanase activity (in words) (reagent 1 mM) | Effect on xylanase activity (in words) [3] | Effect on xylanase activity (in words) (pH 5.5) | Relative activity (%) (pH 5.5)
O=C(O)c1cc[c]([Hg+])cc1.[OH-] [Hydroxymercuribenzoate, p-hydroxymercuribenzoate] | 0% | 0% | total inactivation |  |  | 
O=C(O)CN(CCN(CC(=O)O)CC(=O)O)CC(=O)O [EDTA] |  |  |  |  | do not significantly effect xylanase activity | 96.3% and 93.7%

Second part, led by results:

Relative activity (%) [1] | Relative activity (%) [2] | SMILES | Effect on xylanase activity (in words) (reagent 1 mM) | Effect on xylanase activity (in words) [3] | Effect on xylanase activity (in words) (pH 5.5) | Relative activity (%) (pH 5.5)
0% | 0% | O=C1CCC(=O)N1Br [N-Bromosuccinimide] | total inactivation; also recorded: completely inhibited |  |  | 
96.7% | 95.4% | OCCS [β-Mercaptoethanol] |  | do not significantly effect xylanase activity |  | 
85.5% | 63.3% | O=[N+]([O-])c1ccc(O)c(CBr)c1 [2-Hydroxy-5-nitroxyl-5-nitrobenzyl-bromide] |  | inhibitory |  | 
